Values after ≈ are worked out from the molar mass of the structure shown. Like-named read-outs stand apart in the source and are kept apart here. Where a SMILES comes first, the peptide text is derived from it. Where no end group is shown, it is not given here.
Assays:
S. aureus USA300 LAC = assay: microbe, parasite or virus in culture; assay type: cell-based, Staphylococcus aureus; details: for MIC: read-out: Antimicrobial activity (MIC)
Summary of the method: (§1)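 Broth microdilution with twofold peptide dilutions, using exponential-phase bacteria at about 10^5 CFU/mL in MHB, incubated overnight at 37 °C and read at OD600. MIC, reported as a range, is the peptide concentration with no growth. Some tests used diluted MHB/TSB/LB, adjusted pH, or added NaCl or human serum.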

E. coli E423-17 [1] = assay type: cell-based, Escherichia coli
A. baumannii B28-16 = assay type: cell-based, Acinetobacter baumannii
Summary of the method: (§2)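 Peptides twofold serially diluted against exponential-phase resistant clinical isolates at ~10^5 CFU/mL in MHB (also diluted MHB, TSB or LB in one protocol), CLSI-based broth microdilution. Incubated overnight at 37° C., OD 600 nm read; MIC taken as lowest concentration without growth, reported as ranges.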

P. aeruginosa E411-17 [2] = assay: microbe, parasite or virus in culture; assay type: cell-based, Pseudomonas aeruginosa; details: for MIC: read-out: Antimicrobial activity (MIC)
Summary of the method: as §1

human red blood cells = assay: Hemolytic assay; assay type: cell-based
Description: The hemolytic effects of peptides were evaluated using a method with minor modifications (Lakshmaiah Narayana, et al. (2021) ACS Infect. Dis., 7:1795-1808). Human red blood cells (hRBCs, UNMC Blood Bank) were washed (3×) with blood bank saline (isotonic solution 0.90% w/v, Fisher). Cells were diluted to 2% using the saline solution, and aliquots of 90 μL were added to a 96-well polystyrene microplate containing 10 μL of serially diluted peptide solutions. After incubation at 37° C. for 1 hour, plates were centrifuged at 500 g for 5 minutes. Aliquots of the supernatant were transferred to a 96-well microplate. The amount of hemoglobin released was measured at 545 nm by using a ChroMate™ microplate reader. […] HC50 is defined as the concentration of the peptide that caused 50% lysis.
The hemolytic effects of peptides were evaluated (Narayana, et al. (2020) Proc. Natl. Acad. Sci., 117(32):19446-9454). In brief, human red blood cells (UNMC Blood Bank) were washed (3×) and diluted to 2% using the saline solution. Aliquots of 90 μL were mixed with 10 μL of serially diluted peptide solutions. After incubation at 37° C. for 1 hour, plates were centrifuged at 500 g for 5 minutes and aliquots of the supernatant were transferred to a new 96-well microplate to measure the amount of hemoglobin released at 545 nm (relative to 1% Triton® X-100) using a ChroMate® Microplate Reader.

P. aeruginosa E411-17 [3] = assay: Killing kinetics; assay type: cell-based, Pseudomonas aeruginosa; details: 4×MIC
Description: For bacterial killing kinetics study, MRSA USA300 and P. aeruginosa E411-17 was grown to the exponential phase (OD600˜0.3) in MHB. The culture was diluted to OD600 0.001 (˜10^5 CFU/mL). One milliliter of bacterial suspension was then mixed with the peptide, colistin or daptomycin at 4×MIC and incubated at 37° C. After 15, 30, 60, 90, and 120 minutes incubation, 50 μL was taken and serially diluted with 1×PBS. Then, 50 μL of the diluted suspension was plated on Mannitol Salt Agar (MRSA USA300) or Cetrimide Agar (P. aeruginosa E411-17) plates (NEOGEN, MI). The plates were incubated overnight at 37° C. for bacterial CFU count the next day.

E. coli E423-17 [4] = assay: Membrane permeabilization (propidium iodide); assay type: cell-based, Escherichia coli; details: Example 1, 1×MIC
E. coli E423-17 [5] = assay type: cell-based, Escherichia coli; details: DMEM
S. epidermidis 1457 = assay: microbe, parasite or virus in culture; assay type: cell-based, Staphylococcus epidermidis
Summary of the method: as §2

K. pneumoniae E406-17 = assay type: cell-based, Klebsiella pneumoniae
Description: The following resistant bacterial clinical strains were used in this study: S. aureus USA300 LAC, S. epidermidis 1457, E. coli E423-17, P. aeruginosa E411-17, K. pneumoniae E406-17, and A. baumannii B28-16. While the S. aureus USA300 strain is methicillin-resistant, most of the Gram-negative bacteria contain extended-spectrum beta-lactamase and are resistant to beta-lactam antibiotics. Peptide activity against bacteria was tested using an established lab protocol (Mishra, et al. (2017) Acta Biomater., 49:316-328). In brief, a peptide concentration gradient with twofold dilution was made in the 96-well polystyrene microplate at 10 μL per well. Bacteria were grown to the exponential phase (i.e., optical density at 600 nm≈0.5), diluted to ˜10^5 CFU/mL in different percentages of MHB, TSB, or LB, and partitioned into the 96-well microplate at 90 μL per well. […] They were diluted with autoclaved distilled water to obtain different percentages. The microplates were incubated at 37° C. overnight and read on a ChroMate™ 4300 microplate reader at 600 nm (GMI, Ramsey, MN). The peptide concentration in the wells without bacterial growth is the MIC. As is the convention, MIC values were represented as ranges.
(§3) Peptide activity against bacteria were tested using the CLSI standard procedure with minor modifications (Clinical and Laboratory Standards Institute (2018) Performance standards for antimicrobial susceptibility testing, 9th ed.; Mishra, et al. (2019) Proc. Natl. Acad. Sci., 116(27):13517-13522). In brief, a peptide concentration gradient with twofold dilution was made in the 96-well polystyrene microplate at 10 μL per well. Bacteria were grown to the exponential phase (i.e., optical density at 600 nm≈0.5), diluted to ˜10^5 CFU/mL in MHB, and partitioned into the 96-well microplate at 90 μL per well. The microplates were incubated at 37° C. overnight and read on a ChroMate® 4300 Microplate Reader at 600 nm (GMI, Ramsey, MN). The peptide concentration in the wells without bacterial growth is the minimal inhibitory concentration (MIC). As the convention, MIC values were represented as ranges.

E. coli E416-17 = assay type: cell-based, Escherichia coli
Description: as §3

trypsin = details: peptide:protease 40:1, 37° C., 1 hour
Description: A solution of peptide/protease (40:1 molar ratio) was made in phosphate-buffered saline (PBS; pH 7.1, Gibco, NY) and incubated at 37° C. for 1 hour. As controls, peptides without proteases were also incubated in the same manner. Then, aliquots of 10 μL were transferred to a 96-well polystyrene microplate and mixed with the exponential-phase MRSA USA300 culture as performed in the antibacterial activity assays above.

chymotrypsin = molecular target: T1, chymotrypsin (Bos taurus, UniProt P00766); assay type: in vitro ADME, mammalian
T1 construct: purchased Thermo Fisher Scientific

pepsin = molecular target: T2, pepsin (Sus scrofa, UniProt P00791); assay type: in vitro ADME, mammalian
T2 construct: purchased Thermo Fisher Scientific
T2 sequence (P00791 60-385): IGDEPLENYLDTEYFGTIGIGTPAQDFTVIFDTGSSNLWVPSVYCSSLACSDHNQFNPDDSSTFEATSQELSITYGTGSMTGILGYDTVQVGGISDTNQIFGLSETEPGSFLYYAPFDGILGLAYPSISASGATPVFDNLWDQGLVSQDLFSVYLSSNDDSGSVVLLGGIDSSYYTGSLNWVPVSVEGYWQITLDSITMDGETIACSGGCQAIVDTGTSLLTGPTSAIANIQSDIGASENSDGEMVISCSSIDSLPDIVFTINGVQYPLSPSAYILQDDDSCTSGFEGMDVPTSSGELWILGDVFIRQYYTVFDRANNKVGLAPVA

Molecule	Minimal inhibitory concentration (MIC) S. aureus USA300 (S. aureus USA300 LAC) [µM]	Minimal inhibitory concentration (MIC) S. epidermidis 1457 (S. epidermidis 1457) [µM]	Minimal inhibitory concentration (MIC) K. pneumoniae E406-17 (K. pneumoniae E406-17) [µM]	Minimal inhibitory concentration (MIC) A. baumannii B28-16 (A. baumannii B28-16) [µM]	Minimal inhibitory concentration (MIC) P. aeruginosa E411-17 (P. aeruginosa E411-17 [2]) [µM]	Minimal inhibitory concentration (MIC) E. coli E416-17 (E. coli E416-17) [µM]	HC10-based therapeutic index (HC10/MIC) (human red blood cells)	Hemolysis (HC10), 10% hemolytic concentration (human red blood cells) [µM]	Hemolysis (HC50), 50% hemolytic concentration (human red blood cells) [µM]	further results
Colistin [reference compound]										MIC (S. aureus USA300 LAC; Human serum 5%): >8 µM; MIC (S. aureus USA300 LAC; Human serum 10%): >8 µM; MIC (S. aureus USA300 LAC; NaCl (150 mM)): >8 µM; MIC (S. aureus USA300 LAC; pH 6.21): >8 µM; MIC (S. aureus USA300 LAC; pH 7.22): >8 µM; MIC (S. aureus USA300 LAC; pH 8.13): >8 µM; Antimicrobial activity (MIC) E. coli E423-17 (E. coli E423-17 [1]; MHB, Table 8): 1 to 2 µM; Antimicrobial activity (MIC) A. baumannii B28-16 (A. baumannii B28-16; MHB, Table 8): 2 µM; Antimicrobial activity (MIC) (P. aeruginosa E411-17 [2]; Human serum 5%): 1 to 2 µM; MIC (P. aeruginosa E411-17 [2]; Human serum 10%): 2 µM; Antimicrobial activity (MIC) P. aeruginosa E411-17 (P. aeruginosa E411-17 [2]; MHB, Table 8): 1 to 2 µM; MIC (P. aeruginosa E411-17 [2]; NaCl (150 mM)): 2 µM; MIC (P. aeruginosa E411-17 [2]; pH 6.21): 2 µM; Antimicrobial activity (MIC) (P. aeruginosa E411-17 [2]; pH 7.22): 1 to 2 µM; Antimicrobial activity (MIC) (P. aeruginosa E411-17 [2]; pH 8.13): 1 to 2 µM; hemolysis (human red blood cells; at 400 μM): did not lyse human red blood cells even at 400 μM; time to kill (P. aeruginosa E411-17 [3]): 30 min; membrane permeabilization (E. coli E423-17 [4]): powerful membrane permeator
RIKDFLRNLV-NH2 (C-terminus assumed) [RIK-10]										Antimicrobial activity (MIC) (S. aureus USA300 LAC; MHB 12.5%): active; Antimicrobial activity (MIC) (E. coli E423-17 [1]; E423-17): 32 to 64 µM; Antimicrobial activity (MIC) (E. coli E423-17 [1]; MHB 100%): 16 µM; Antimicrobial activity (MIC) (E. coli E423-17 [5]): 8 µM
CC(C)C[C@H](N)C(=O)N[C@@H](Cc1c[nH]c2ccccc12)C(=O)NCC(=O)N[C@@H](CCCNC(=N)N)C(=O)N[C@@H](Cc1ccccc1)C(=O)N[C@@H](Cc1ccccc1)C(=O)N[C@@H](CCCNC(=N)N)C(=O)N[C@@H](CCCCN)C(=O)N[C@@H](Cc1ccc(-c2ccccc2)cc1)C(=O)N[C@@H](CCCCN)C(N)=O [Bip-LL-10+] (HELM PEPTIDE1{L.W.G.R.F.F.R.K.[O=C([C@H](Cc1ccc(-c2ccccc2)cc1)N[*:1])[*:2]].K.[am]}$$$$V2.0)	2 to 4	4 (≈ 5.84 µg/mL)	>32	8 (≈ 11.7 µg/mL)	4 (≈ 5.84 µg/mL)	4 (≈ 5.84 µg/mL)	25	100	> 200	
CC(C)C[C@H](NC(=O)[C@H](Cc1ccccc1)NC(=O)[C@H](CCCNC(=N)N)NC(=O)[C@H](CCCCN)NC(=O)[C@H](Cc1ccc(-c2ccccc2)cc1)NC(=O)[C@@H](N)CCCNC(=N)N)C(=O)N[C@@H](CCCNC(=N)N)C(=O)N[C@@H](CC(N)=O)C(=O)N[C@@H](Cc1ccc(-c2ccccc2)cc1)C(=O)N[C@H](C(N)=O)C(C)C [Bip-RIK-10+] (HELM PEPTIDE1{R.[O=C([C@H](Cc1ccc(-c2ccccc2)cc1)N[*:1])[*:2]].K.R.F.L.R.N.[O=C([C@H](Cc1ccc(-c2ccccc2)cc1)N[*:1])[*:2]].V.[am]}$$$$V2.0)	1 (≈ 1.53 µg/mL)	2 (≈ 3.07 µg/mL)	2 to 4	2 to 4	2 (≈ 3.07 µg/mL)	2 (≈ 3.07 µg/mL)	<4		~30	Hemolysis (HC10), 10% hemolytic concentration (human red blood cells; red cells of human): < 8 µM
N=C(N)NCCC[C@@H](N)C(=O)N[C@H](CCCNC(=N)N)C(=O)N[C@H](Cc1c[nH]c2ccccc12)C(=O)N[C@H](Cc1c[nH]c2ccccc12)C(=O)N[C@H](CCCNC(=N)N)C(=O)N[C@H](Cc1c[nH]c2ccccc12)C(=O)N[C@H](Cc1c[nH]c2ccccc12)C(=O)N[C@H](CCCNC(=N)N)C(N)=O [LL-37mini (D-form)] (HELM PEPTIDE1{[dR].[dR].[dW].[dW].[dR].[dW].[dW].[dR].[am]}$$$$V2.0)										activity after protease incubation (trypsin): remained active; activity after protease incubation (chymotrypsin): remained active; activity after protease incubation (pepsin): retained antibacterial activity
N=C(N)NCCC[C@H](NC(=O)[C@@H](N)CCCCN)C(=O)N[C@@H](Cc1c[nH]c2ccccc12)C(=O)N[C@@H](Cc1ccc(-c2ccccc2)cc1)C(=O)N[C@@H](CCC(N)=O)C(=O)N[C@@H](Cc1c[nH]c2ccccc12)C(=O)N[C@@H](Cc1ccc(-c2ccccc2)cc1)C(=O)N[C@@H](CCCCN)C(N)=O [Bip-KR-8+] (HELM PEPTIDE1{K.R.W.[O=C([C@H](Cc1ccc(-c2ccccc2)cc1)N[*:1])[*:2]].Q.W.[O=C([C@H](Cc1ccc(-c2ccccc2)cc1)N[*:1])[*:2]].K.[am]}$$$$V2.0)	4 (≈ 5.51 µg/mL)	4 (≈ 5.51 µg/mL)	>32	32 (≈ 44.1 µg/mL)	16 to 32	16 (≈ 22 µg/mL)	~1	15	> 200	

— patent US20250101062A1, “ANTIMICROBIAL PEPTIDES” (Board of Regents of the University of Nebraska, priority 2023, published 2025)
